In ChEMBL document CHEMBL1649393, “Synthesis and antimicrobial activity of thiosemicarbazides, s-triazoles and their Mannich bases bearing 3-chlorophenyl moiety” (2011):
≈ marks a conversion by molar mass, not a printed value.

Tests used:
Format in all cases: functional
[1] = tested on: Staphylococcus aureus; experiment: Antimicrobial activity against Staphylococcus aureus ATCC 25923 after 18 hrs by broth microdilution method; settings: ATCC 25923, 18 h
[2] = tested on: Staphylococcus aureus; experiment: Antimicrobial activity against Staphylococcus aureus ATCC 6538 after 18 hrs by broth microdilution method; settings: ATCC 6538, 18 h
[3] = tested on: Staphylococcus epidermidis; experiment: Antimicrobial activity against Staphylococcus epidermidis ATCC 12228 after 18 hrs by broth microdilution method; settings: ATCC 12228, 18 h
[4] = tested on: Bacillus subtilis; experiment: Antimicrobial activity against Bacillus subtilis ATCC […] after 18 hrs by broth microdilution method
[5] = tested on: Bacillus cereus; experiment: Antimicrobial activity against Bacillus cereus ATCC 10876 after 18 hrs by broth microdilution method; settings: ATCC 10876, 18 h
[6] = tested on: Micrococcus luteus; experiment: Antimicrobial activity against Micrococcus luteus ATCC 10240 after 18 hrs by broth microdilution method; settings: ATCC 10240, 18 h
[7] = tested on: Escherichia coli; experiment: Antimicrobial activity against Escherichia coli ATCC 25922 after 18 hrs by broth microdilution method; settings: ATCC 25922, 18 h
[8] = tested on: Klebsiella pneumoniae; experiment: Antimicrobial activity against Klebsiella pneumoniae ATCC 13883 after 18 hrs by broth microdilution method; settings: ATCC 13883, 18 h
[9] = tested on: Proteus mirabilis; experiment: Antimicrobial activity against Proteus mirabilis ATCC 12453 after 18 hrs by broth microdilution method; settings: ATCC 12453, 18 h
[10] = tested on: Staphylococcus aureus; experiment: Antimicrobial activity against Staphylococcus aureus ATCC 25923 assessed as >99.9 % reduction in CFU after 18 hrs by broth microdilution method; settings: ATCC 25923, 18 h
[11] = tested on: Staphylococcus aureus; experiment: Antimicrobial activity against Staphylococcus aureus ATCC 6538 assessed as >99.9 % reduction in CFU after 18 hrs by broth microdilution method; settings: ATCC 6538, 18 h
[12] = tested on: Staphylococcus epidermidis; experiment: Antimicrobial activity against Staphylococcus epidermidis ATCC 12228 assessed as >99.9 % reduction in CFU after 18 hrs by broth microdilution method; settings: ATCC 12228, 18 h
[13] = tested on: Bacillus subtilis; experiment: Antimicrobial activity against Bacillus subtilis ATCC […] assessed as >99.9 % reduction in CFU after 18 hrs by broth microdilution method
[14] = tested on: Bacillus cereus; experiment: Antimicrobial activity against Bacillus cereus ATCC 10876 assessed as >99.9 % reduction in CFU after 18 hrs by broth microdilution method; settings: ATCC 10876, 18 h
[15] = tested on: Micrococcus luteus; experiment: Antimicrobial activity against Micrococcus luteus ATCC 10240 assessed as >99.9 % reduction in CFU after 18 hrs by broth microdilution method; settings: ATCC 10240, 18 h
[16] = tested on: Escherichia coli; experiment: Antimicrobial activity against Escherichia coli ATCC 25922 assessed as >99.9 % reduction in CFU after 18 hrs by broth microdilution method; settings: ATCC 25922, 18 h
[17] = tested on: Klebsiella pneumoniae; experiment: Antimicrobial activity against Klebsiella pneumoniae ATCC 13883 assessed as >99.9 % reduction in CFU after 18 hrs by broth microdilution method; settings: ATCC 13883, 18 h
[18] = tested on: Proteus mirabilis; experiment: Antimicrobial activity against Proteus mirabilis ATCC 12453 assessed as >99.9 % reduction in CFU after 18 hrs by broth microdilution method; settings: ATCC 12453, 18 h

Row | MIC [1] | MIC [2] | MIC [3] | MIC [4] | MIC [5] | MIC [6] | MIC [7] | Compound | MBC [10] | MBC [11] | MBC [12] | MBC [13] | MBC [14] | MBC [15] | MBC [16] | also measured
1 | 125 µg/mL (≈ 366 µM) | 250 µg/mL (≈ 731 µM) | 250 µg/mL (≈ 731 µM) | 250 µg/mL (≈ 731 µM) | 250 µg/mL (≈ 731 µM) | 250 µg/mL (≈ 731 µM) | – | O=C(NNC(=S)Nc1c(F)cccc1F)c1cccc(Cl)c1 | – | – | – | – | – | – | – | –
2 | 125 µg/mL (≈ 321 µM) | 125 µg/mL (≈ 321 µM) | 125 µg/mL (≈ 321 µM) | 125 µg/mL (≈ 321 µM) | 250 µg/mL (≈ 643 µM) | 125 µg/mL (≈ 321 µM) | 500 µg/mL (≈ 1290 µM) | Fc1ccc(-n2c(-c3cccc(Cl)c3)nn(CN3CCCC3)c2=S)cc1 | 250 µg/mL (≈ 643 µM) | 250 µg/mL (≈ 643 µM) | 500 µg/mL (≈ 1290 µM) | 250 µg/mL (≈ 643 µM) | > 1000 µg/mL | 500 µg/mL (≈ 1290 µM) | 500 µg/mL (≈ 1290 µM) | MIC [8]: 500 µg/mL (≈ 1290 µM); MIC ([9]; read-out: MIC): 500 µg/mL (≈ 1290 µM); MBC ([17]; read-out: MBC): 500 µg/mL (≈ 1290 µM); MBC ([18]; read-out: MBC): 1000 µg/mL (≈ 2570 µM)
3 | > 1000 µg/mL | > 1000 µg/mL | > 1000 µg/mL | > 1000 µg/mL | > 1000 µg/mL | > 1000 µg/mL | – | Cc1ccc(-n2c(-c3cccc(Cl)c3)n[nH]c2=S)cc1 | – | – | – | – | – | – | – | –
4 | 62.5 µg/mL (≈ 183 µM) | 62.5 µg/mL (≈ 183 µM) | 125 µg/mL (≈ 366 µM) | 125 µg/mL (≈ 366 µM) | 125 µg/mL (≈ 366 µM) | 62.5 µg/mL (≈ 183 µM) | – | O=C(NNC(=S)Nc1cc(F)ccc1F)c1cccc(Cl)c1 | – | – | – | – | – | – | – | –
5 | 62.5 µg/mL (≈ 195 µM) | 62.5 µg/mL (≈ 195 µM) | > 1000 µg/mL | > 1000 µg/mL | > 1000 µg/mL | > 1000 µg/mL | – | Cc1ccc(NC(=S)NNC(=O)c2cccc(Cl)c2)cc1 | – | – | – | – | – | – | – | –
6 | 31.2 µg/mL (≈ 91.8 µM) | 31.2 µg/mL (≈ 91.8 µM) | 31.2 µg/mL (≈ 91.8 µM) | 31.2 µg/mL (≈ 91.8 µM) | 62.5 µg/mL (≈ 184 µM) | 31.2 µg/mL (≈ 91.8 µM) | – | O=C(NNC(=S)Nc1ccc(Cl)cc1)c1cccc(Cl)c1 | – | – | – | – | – | – | – | –
7 | 62.5 µg/mL (≈ 186 µM) | 125 µg/mL (≈ 372 µM) | 125 µg/mL (≈ 372 µM) | 125 µg/mL (≈ 372 µM) | 125 µg/mL (≈ 372 µM) | 62.5 µg/mL (≈ 186 µM) | – | COc1ccc(NC(=S)NNC(=O)c2cccc(Cl)c2)cc1 | – | – | – | – | – | – | – | –
8 | 125 µg/mL (≈ 409 µM) | 125 µg/mL (≈ 409 µM) | 125 µg/mL (≈ 409 µM) | 125 µg/mL (≈ 409 µM) | 125 µg/mL (≈ 409 µM) | 125 µg/mL (≈ 409 µM) | – | O=C(NNC(=S)Nc1ccccc1)c1cccc(Cl)c1 | – | – | – | – | – | – | – | –
9 | 250 µg/mL (≈ 772 µM) | 250 µg/mL (≈ 772 µM) | 250 µg/mL (≈ 772 µM) | 500 µg/mL (≈ 1540 µM) | 250 µg/mL (≈ 772 µM) | 125 µg/mL (≈ 386 µM) | – | Fc1cccc(F)c1-n1c(-c2cccc(Cl)c2)n[nH]c1=S | – | – | – | – | – | – | – | –
10 | 31.2 µg/mL (≈ 69.5 µM) | 62.5 µg/mL (≈ 139 µM) | 250 µg/mL (≈ 556 µM) | 62.5 µg/mL (≈ 139 µM) | 62.5 µg/mL (≈ 139 µM) | 62.5 µg/mL (≈ 139 µM) | > 1000 µg/mL | S=c1n(CN2CCCC2)nc(-c2cccc(Cl)c2)n1-c1ccc(Br)cc1 | > 1000 µg/mL | > 1000 µg/mL | > 1000 µg/mL | 500 µg/mL (≈ 1110 µM) | > 1000 µg/mL | > 1000 µg/mL | > 1000 µg/mL | MIC [8]: > 1000 µg/mL; MIC ([9]; read-out: MIC): > 1000 µg/mL; MBC ([17]; read-out: MBC): > 1000 µg/mL; MBC ([18]; read-out: MBC): > 1000 µg/mL
11 | 125 µg/mL (≈ 307 µM) | 125 µg/mL (≈ 307 µM) | 125 µg/mL (≈ 307 µM) | 125 µg/mL (≈ 307 µM) | 125 µg/mL (≈ 307 µM) | 125 µg/mL (≈ 307 µM) | 500 µg/mL (≈ 1230 µM) | Fc1ccc(F)c(-n2c(-c3cccc(Cl)c3)nn(CN3CCCC3)c2=S)c1 | 500 µg/mL (≈ 1230 µM) | 500 µg/mL (≈ 1230 µM) | 1000 µg/mL (≈ 2460 µM) | 1000 µg/mL (≈ 2460 µM) | > 1000 µg/mL | 1000 µg/mL (≈ 2460 µM) | > 1000 µg/mL | MIC [8]: 250 µg/mL (≈ 614 µM); MIC [9]: 500 µg/mL (≈ 1230 µM); MBC ([17]; read-out: MBC): > 1000 µg/mL; MBC [18]: > 1000 µg/mL
12 | 125 µg/mL (≈ 307 µM) | 125 µg/mL (≈ 307 µM) | 125 µg/mL (≈ 307 µM) | 125 µg/mL (≈ 307 µM) | 125 µg/mL (≈ 307 µM) | – | 500 µg/mL (≈ 1230 µM) | Fc1cccc(F)c1-n1c(-c2cccc(Cl)c2)nn(CN2CCCC2)c1=S | 500 µg/mL (≈ 1230 µM) | 500 µg/mL (≈ 1230 µM) | 1000 µg/mL (≈ 2460 µM) | 500 µg/mL (≈ 1230 µM) | 1000 µg/mL (≈ 2460 µM) | 1000 µg/mL (≈ 2460 µM) | 1000 µg/mL (≈ 2460 µM) | MBC [6]: 1000 µg/mL (≈ 2460 µM); MBC [8]: 1000 µg/mL (≈ 2460 µM); MIC [9]: 1000 µg/mL (≈ 2460 µM); MBC [17]: 1000 µg/mL (≈ 2460 µM); MBC [18]: 1000 µg/mL (≈ 2460 µM)
13 | > 1000 µg/mL | > 1000 µg/mL | > 1000 µg/mL | > 1000 µg/mL | > 1000 µg/mL | > 1000 µg/mL | – | O=C(NNC(=S)Nc1ccc(F)cc1)c1cccc(Cl)c1 | – | – | – | – | – | – | – | –
14 | 500 µg/mL (≈ 1010 µM) | 500 µg/mL (≈ 1010 µM) | 500 µg/mL (≈ 1010 µM) | 250 µg/mL (≈ 503 µM) | 500 µg/mL (≈ 1010 µM) | 500 µg/mL (≈ 1010 µM) | > 1000 µg/mL | S=c1n(CN2CCCC2)nc(-c2cccc(Cl)c2)n1-c1ccccc1I | > 1000 µg/mL | > 1000 µg/mL | > 1000 µg/mL | > 1000 µg/mL | > 1000 µg/mL | > 1000 µg/mL | > 1000 µg/mL | MIC [8]: > 1000 µg/mL; MIC ([9]; read-out: MIC): > 1000 µg/mL; MBC ([17]; read-out: MBC): > 1000 µg/mL; MBC ([18]; read-out: MBC): > 1000 µg/mL
15 | > 1000 µg/mL | > 1000 µg/mL | > 1000 µg/mL | > 1000 µg/mL | > 1000 µg/mL | > 1000 µg/mL | – | COc1ccc(-n2c(-c3cccc(Cl)c3)n[nH]c2=S)cc1 | – | – | – | – | – | – | – | –
